From PMC12154031, “Screening and Validation: AI-Aided Discovery of Dipeptidyl Peptidase-4 Inhibitory Peptides from Hydrolyzed Rice Proteins” (Foods, 2025)
Read-outs that look alike come from different tables or passages of the source. No end group written: not given here.

Key:
DPP-4 [1] = biological target: T1, DPP-4 (Homo sapiens, UniProt P27487); assay: DPP-IV-inhibitory activity, Gly-Pro-pNA substrate; type: biochemical; conditions: 37 °C, 15 min; for IC50: Tris–HCl 20 mM pH 8.0, substrate Gly-Pro-pNA 1 mM (50 µL), 0.05 mg/mL DPP-4 (10 µL), peptide in ddH2O, dark, absorbance 405 nm, triplicate, four-parameter logistic fit
T1 construct: purchased Adamas (Shanghai Adamas Reagent Co., Ltd., Shanghai, China)
T1 sequence (P27487 whole entry): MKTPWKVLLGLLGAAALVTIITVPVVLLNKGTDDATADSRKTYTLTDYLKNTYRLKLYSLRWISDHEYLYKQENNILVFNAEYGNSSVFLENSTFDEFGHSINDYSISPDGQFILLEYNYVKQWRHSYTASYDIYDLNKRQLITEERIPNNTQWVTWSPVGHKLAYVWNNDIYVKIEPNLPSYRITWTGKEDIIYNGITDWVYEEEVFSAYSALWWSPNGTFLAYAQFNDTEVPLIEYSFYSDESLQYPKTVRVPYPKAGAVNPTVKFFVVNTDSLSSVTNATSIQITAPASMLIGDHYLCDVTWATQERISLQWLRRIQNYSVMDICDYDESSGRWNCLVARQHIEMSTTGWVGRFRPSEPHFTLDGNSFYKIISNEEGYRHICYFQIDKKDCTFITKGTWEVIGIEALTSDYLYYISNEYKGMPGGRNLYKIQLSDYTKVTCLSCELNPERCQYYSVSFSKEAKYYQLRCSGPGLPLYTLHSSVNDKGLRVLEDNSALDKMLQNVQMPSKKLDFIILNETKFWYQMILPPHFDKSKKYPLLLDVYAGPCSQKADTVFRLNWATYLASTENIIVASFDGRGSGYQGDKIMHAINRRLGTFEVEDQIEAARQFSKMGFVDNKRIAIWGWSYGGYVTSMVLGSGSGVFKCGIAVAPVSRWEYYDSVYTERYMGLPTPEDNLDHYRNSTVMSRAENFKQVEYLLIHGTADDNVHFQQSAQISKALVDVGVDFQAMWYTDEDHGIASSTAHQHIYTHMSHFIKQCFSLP
Experimental: The assay method for measuring the peptide inhibition of DPP-4 was based on the combination of two established protocols: the peptides were dissolved in ddH2O to prepare a gradient of concentrations and the DPP-4 enzyme was diluted in Tris–HCl (20 mM, pH 8.0). In a 96-well plate, 30 µL ddH2O, 10 µL peptide solution, 50 µL substrate (1 mM), and 10 µL DPP-4 enzyme (0.05 mg/mL) were added sequentially. Each peptide concentration was tested in triplicate and incubated at 37 °C in the dark for 15 min, and then 100 µL of 0.1 M NaHCO3 solution was added to stop the reaction. The absorbance at 405 nm was measured on a microplate reader, and the percent inhibition of DPP-4 was calculated at each concentration. The IC50 values for the four peptides were determined by fitting the dose–response curves with the log peptide concentration on the x-axis and the DI (%) on the y-axis. The DPP-IV-inhibition (DI) was calculated as follows:(8) DI%=(1−A405peptide−A405buffer/A405positive control−A405negtive control)×[…] where A405 (peptide) represents the optical density (at 405 nm) of the enzyme (DPP-IV) in the presence of the substrate (Gly-Pro-p-nitroanilide) and inhibitor (inhibitory peptide); A405 (buffer) represents the optical density of ddH2O; A405 (positive reaction) represents the optical density of the enzyme and the substrate in the absence of inhibitor; and A405 (negative reaction) represents the optical density of the enzyme in the absence of the substrate and inhibitor.
Origin 2024 was used to sort out the physical and chemical property data and create heatmaps to visualize the correlation between the peptide activity, the docking energy, and the physicochemical properties. GraphPad Prism 10 was used to perform non-linear regression of the DPP-4 percent inhibition versus the log[concentration]. The differences between the IC50 values of DPP-IV were subjected to the ordinary one-way ANOVA test. A p-value < 0.05 was considered significant. Other images were created by Python 3.13.2 and Adobe Illustrator 2022. We evaluated Section 2 of the article using the TRIPOD (Transparent Reporting of a multivariable prediction model for Individual Prognosis Or Diagnosis) framework from the EQUATOR Network.

DPP-4 [2] = biological target: T1, DPP-4; parameters: method as in PMID 29963014, PMID 6427168; conditions: known DPP-4 inhibitory peptide, positive control; ref [41],[42]; cited from earlier work

Substance: CPPPPAAY [rice-derived proline-rich peptide, synthesized, purity of 95%]
- IC50 (DPP-4 [1]): could not be determined
- DPP-4 inhibition (DI%), result in words (DPP-4 [1]; within the tested concentration range, pH 8.0, n = 3): showed no inhibitory effect

Substance: Diprotin A [IPI]
- IC50 (DPP-4 [2]): ~3.5 µM

Substance: PPPPPPPPA [PPPPPPPPA]
- IC50 (DPP-4 [1]; read-out: IC50): 177 ± 6 µM

Substance: PPPPPY [PPPPPY]
- IC50 (DPP-4 [1]; read-out: IC50): 153 ± 5.7 µM

Substance: PPPSPPPV [PPPSPPPV]
- IC50 (DPP-4 [1]; read-out: IC50): 216 ± 4.5 µM
